Columns and labels:
Format in all cases: in vivo
Kochia (Kochia scoparia) [1] = assay: Test A preemergence; settings: for Plant response rating, Kochia: 125 g ai/ha, preemergence, 0 to 100 scale (0 no effect, 100 complete control); for Kochia plant response rating (0 to 100 scale, 0 is no effect, 100 is complete control): visual injury approx. 10 d
In short: (§1)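 Seeds sprayed preemergence with a directed soil spray, or plants at 2 to 10 cm height and one- to two-leaf stage sprayed postemergence, with test chemicals in a non-phytotoxic solvent mixture containing surfactant, in loam soil–sand blend. Injury rated visually against untreated controls after about 10 d in greenhouse, 0 (no effect) to 100 (complete control).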

[2] = tested on: barnyardgrass (Echinochloa crus-galli); assay: Test A preemergence; settings: for Plant response rating, Barnyardgrass: 125 g ai/ha, preemergence, 0 to 100 scale (0 no effect, 100 complete control); for Barnyardgrass plant response rating (0 to 100 scale, 0 is no effect, 100 is complete control): visual injury approx. 10 d
In short: as §1

[3] = tested on: giant foxtail (Setaria faberii); assay: Test A preemergence; settings: for Plant response rating, Foxtail, Giant: 125 g ai/ha, preemergence, 0 to 100 scale (0 no effect, 100 complete control); for Foxtail, Giant plant response rating (0 to 100 scale, 0 is no effect, 100 is complete control): visual injury approx. 10 d
In short: as §1

[4] = tested on: pigweed (Amaranthus retroflexus); assay: Test A preemergence; settings: for Plant response rating, Pigweed: 125 g ai/ha, preemergence, 0 to 100 scale (0 no effect, 100 complete control); for Pigweed plant response rating (0 to 100 scale, 0 is no effect, 100 is complete control): visual injury approx. 10 d
[5] = tested on: ragweed (common ragweed, Ambrosia elatior); assay: Test A preemergence; settings: for Plant response rating, Ragweed: 125 g ai/ha, preemergence, 0 to 100 scale (0 no effect, 100 complete control); for Ragweed plant response rating (0 to 100 scale, 0 is no effect, 100 is complete control): visual injury approx. 10 d
In short: as §1

[6] = tested on: ryegrass, Italian (Italian ryegrass, Lolium multiflorum); assay: Test A preemergence; settings: for Plant response rating, Ryegrass, Italian: 125 g ai/ha, preemergence, 0 to 100 scale (0 no effect, 100 complete control); for Ryegrass, Italian plant response rating (0 to 100 scale, 0 is no effect, 100 is complete control): visual injury approx. 10 d
In short: as §1

[7] = tested on: Galium (catchweed bedstraw, Galium aparine); assay: Test A postemergence; settings: postemergence; for Galium plant response rating: 125 g ai/ha, visual injury rating on 0 to 100 scale (0 no effect, 100 complete control), approx. 10 d; for Plant response rating, Galium: 500 g ai/ha, 0 to 100 scale, 0 no effect, 100 complete control
In short: as §1

Kochia (Kochia scoparia) [8] = assay: Test A postemergence; settings: postemergence; for Kochia plant response rating: 125 g ai/ha, visual injury rating on 0 to 100 scale (0 no effect, 100 complete control), approx. 10 d; for Plant response rating, Kochia: 500 g ai/ha, 0 to 100 scale, 0 no effect, 100 complete control
In short: as §1

[9] = tested on: barnyardgrass (Echinochloa crus-galli); assay: Test A postemergence; settings: for Barnyardgrass plant response rating: visual injury rating on 0 to 100 scale (0 no effect, 100 complete control)
In short: as §1

[10] = tested on: blackgrass (Alopecurus myosuroides); assay: Test A postemergence; settings: for Blackgrass plant response rating: visual injury rating on 0 to 100 scale (0 no effect, 100 complete control)
In short: as §1

corn (Zea mays) = assay: Test A postemergence; settings: postemergence; for Corn plant response rating: 125 g ai/ha, visual injury rating on 0 to 100 scale (0 no effect, 100 complete control), approx. 10 d; for Plant response rating, Corn: 500 g ai/ha, 0 to 100 scale, 0 no effect, 100 complete control
In short: as §1

[11] = tested on: giant foxtail (Setaria faberii); assay: Test A postemergence; settings: postemergence; for Foxtail, Giant plant response rating: 125 g ai/ha, visual injury rating on 0 to 100 scale (0 no effect, 100 complete control), approx. 10 d; for Plant response rating, Foxtail, Giant: 500 g ai/ha, 0 to 100 scale, 0 no effect, 100 complete control
In short: as §1

[12] = tested on: pigweed (Amaranthus retroflexus); assay: Test A postemergence; settings: postemergence; for Pigweed plant response rating: 125 g ai/ha, visual injury rating on 0 to 100 scale (0 no effect, 100 complete control), approx. 10 d; for Plant response rating, Pigweed: 500 g ai/ha, 0 to 100 scale, 0 no effect, 100 complete control
In short: as §1

[13] = tested on: ragweed (common ragweed, Ambrosia elatior); assay: Test A postemergence; settings: postemergence; for Ragweed plant response rating: 125 g ai/ha, visual injury rating on 0 to 100 scale (0 no effect, 100 complete control), approx. 10 d; for Plant response rating, Ragweed: 500 g ai/ha, 0 to 100 scale, 0 no effect, 100 complete control
In short: as §1

[14] = tested on: ryegrass, Italian (Italian ryegrass, Lolium multiflorum); assay: Test A postemergence; settings: postemergence; for Ryegrass, Italian plant response rating: 125 g ai/ha, visual injury rating on 0 to 100 scale (0 no effect, 100 complete control), approx. 10 d; for Plant response rating, Ryegrass, Italian: 500 g ai/ha, 0 to 100 scale, 0 no effect, 100 complete control
In short: as §1

[15] = tested on: wheat (Triticum aestivum); assay: Test A postemergence; settings: postemergence; for Wheat plant response rating: 125 g ai/ha, visual injury rating on 0 to 100 scale (0 no effect, 100 complete control), approx. 10 d; for Plant response rating, Wheat: 500 g ai/ha, 0 to 100 scale, 0 no effect, 100 complete control
In short: as §1

[16] = tested on: barnyardgrass (Echinochloa crus-galli); assay: Test B flooded paddy test; settings: Flood, 500 g ai/ha; 0 to 100 scale where 0 is no effect and 100 is complete control; 13 to 15 d
In short: (§2)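 Greenhouse paddy pots with 2-leaf stage plants received compound by direct addition to floodwater 3 cm deep, kept at that level. Scored visually at 13–15 d versus controls (0 no effect; 100 complete control).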

[17] = tested on: ducksalad (Heteranthera limosa); assay: Test B flooded paddy test; settings: Flood, 500 g ai/ha; 0 to 100 scale where 0 is no effect and 100 is complete control; 13 to 15 d
In short: as §2

rice (Oryra sativa) = assay: Test B flooded paddy test; settings: Flood, 500 g ai/ha; 0 to 100 scale where 0 is no effect and 100 is complete control; 13 to 15 d
In short: as §2

[18] = tested on: sedge, umbrella (small-flower umbrella sedge, Cyperus difformis); assay: Test B flooded paddy test; settings: Flood, 500 g ai/ha; 0 to 100 scale where 0 is no effect and 100 is complete control; 13 to 15 d
In short: as §2

[19] = Preemergence, 500 g ai/ha, 0 is no effect, 100 is complete control
[20] = 500 g ai/ha, postemergence, 0 to 100 scale, 0 no effect, 100 complete control
[21] = Postemergence, 125 g ai/ha, visual injury, 0 to 100 scale (0 no effect, 100 complete control), approx. 10 d
[22] = 125 g ai/ha, postemergence, approx. 10 d

| Compound | Plant response rating, Kochia (Kochia (Kochia scoparia) [1]) | Plant response rating, Barnyardgrass [2] | Plant response rating, Foxtail, Giant [3] | Plant response rating, Pigweed [4] | Plant response rating, Ragweed [5] | Plant response rating, Ryegrass, Italian [6] | Galium plant response rating [7] | Plant response rating, Galium [7] | Kochia plant response rating (Kochia (Kochia scoparia) [8]) | Plant response rating, Kochia (Kochia (Kochia scoparia) [8]) | Plant response rating, Barnyardgrass [9, 20] | Plant response rating, Blackgrass [10, 20] | Corn plant response rating (corn (Zea mays)) | Plant response rating, Corn (corn (Zea mays)) | Foxtail, Giant plant response rating [11] | Plant response rating, Foxtail, Giant [11] | Pigweed plant response rating [12] | Plant response rating, Pigweed [12] | Ragweed plant response rating [13] | Plant response rating, Ragweed [13] | other results |
| --- | --- | --- | --- | --- | --- | --- | --- | --- | --- | --- | --- | --- | --- | --- | --- | --- | --- | --- | --- | --- | --- |
| O=C1NCC(c2cccc(OCC(F)F)c2)C1C(=O)Nc1cccc(F)c1F (stereo not drawn) [Compound 389] | 0 | 70 | 80 | 0 | 0 | 0 | 0 | 0 | 0 | 0 | 70 | 0 | 30 | 50 | 60 | 70 | 0 | 20 | 0 | 0 | Kochia plant response rating (0 to 100 scale) (Kochia (Kochia scoparia) [1]; [19]): 0; Barnyardgrass plant response rating (0 to 100 scale) [2, 19]: 70; Foxtail, Giant plant response rating (0 to 100 scale) [3, 19]: 90; Pigweed plant response rating (0 to 100 scale) [4, 19]: 0; Ragweed plant response rating (0 to 100 scale) [5, 19]: 0; Ryegrass, Italian plant response rating (0 to 100 scale) [6, 19]: 0; Plant response rating, Barnyardgrass [9, 21]: 50; Plant response rating, Blackgrass [10, 21]: 0; Ryegrass, Italian plant response rating [14]: 0; Plant response rating, Ryegrass, Italian [14]: 0; Wheat plant response rating [15]: 0; Plant response rating, Wheat [15]: 0; Plant response rating, Barnyardgrass [16]: 60; Plant response rating, Ducksalad [17]: 100; Plant response rating, Rice (rice (Oryra sativa)): 15; Plant response rating, Sedge, Umbrella [18]: 0 |
| COc1ccc(NC(=O)C2C(=O)NCC2c2ccc(F)c(F)c2)c(F)c1 (stereo not drawn) [Compound 413] | 0 | 0 | 0 | 0 | 0 | 0 | 0 | 0 | 0 | 0 | 0 | 0 | 0 | 0 | 0 | 0 | 0 | 0 | 0 | 0 | Kochia plant response rating (0 to 100 scale, 0 is no effect, 100 is complete control) (Kochia (Kochia scoparia) [1]; Preemergence, 500 g ai/ha): 0; Barnyardgrass plant response rating (0 to 100 scale, 0 is no effect, 100 is complete control) ([2]; Preemergence, 500 g ai/ha): 0; Foxtail, Giant plant response rating (0 to 100 scale, 0 is no effect, 100 is complete control) ([3]; Preemergence, 500 g ai/ha): 0; Pigweed plant response rating (0 to 100 scale, 0 is no effect, 100 is complete control) ([4]; Preemergence, 500 g ai/ha): 0; Ragweed plant response rating (0 to 100 scale, 0 is no effect, 100 is complete control) ([5]; Preemergence, 500 g ai/ha): 0; Ryegrass, Italian plant response rating (0 to 100 scale, 0 is no effect, 100 is complete control) ([6]; Preemergence, 500 g ai/ha): 0; Barnyardgrass plant response rating [9, 22]: 0; Blackgrass plant response rating [10, 22]: 0; Ryegrass, Italian plant response rating [14]: 0; Plant response rating, Ryegrass, Italian [14]: 0; Wheat plant response rating [15]: 0; Plant response rating, Wheat [15]: 0; Plant response rating, Barnyardgrass [16]: 0; Plant response rating, Ducksalad [17]: 0; Plant response rating, Rice (rice (Oryra sativa)): 0; Plant response rating, Sedge, Umbrella [18]: 0 |
| Cc1cccc(NC(=O)C2C(=O)NCC2c2cccc(OC(F)F)c2)c1F (stereo not drawn) [Compound 420] | 0 | 70 | 90 | 0 | 0 | 0 | 0 | 0 | 0 | 0 | 90 | 0 | 0 | 0 | 70 | 80 | 0 | 0 | 0 | 0 | Kochia plant response rating (0 to 100 scale, 0 is no effect, 100 is complete control) (Kochia (Kochia scoparia) [1]; Preemergence, 500 g ai/ha): 30; Barnyardgrass plant response rating (0 to 100 scale, 0 is no effect, 100 is complete control) ([2]; Preemergence, 500 g ai/ha): 90; Foxtail, Giant plant response rating (0 to 100 scale, 0 is no effect, 100 is complete control) ([3]; Preemergence, 500 g ai/ha): 90; Pigweed plant response rating (0 to 100 scale, 0 is no effect, 100 is complete control) ([4]; Preemergence, 500 g ai/ha): 30; Ragweed plant response rating (0 to 100 scale, 0 is no effect, 100 is complete control) ([5]; Preemergence, 500 g ai/ha): 0; Ryegrass, Italian plant response rating (0 to 100 scale, 0 is no effect, 100 is complete control) ([6]; Preemergence, 500 g ai/ha): 0; Barnyardgrass plant response rating [9, 22]: 80; Blackgrass plant response rating [10, 22]: 0; Ryegrass, Italian plant response rating [14]: 0; Plant response rating, Ryegrass, Italian [14]: 0; Wheat plant response rating [15]: 0; Plant response rating, Wheat [15]: 0; Plant response rating, Barnyardgrass [16]: 65; Plant response rating, Ducksalad [17]: 85; Plant response rating, Rice (rice (Oryra sativa)): 25; Plant response rating, Sedge, Umbrella [18]: 0 |

From US12077503B2, “Substituted cyclic amides and their use as herbicides” (FMC CORPORATION, priority 2015, dated 2024)
